Measurements as given in patent US11761045B2, “Splice variants associated with neomorphic SF3B1 mutants” (Eisai R&D Management Co., Ltd., priority 2015, dated 2023).

Legend:
[1] = system: Nalm-6 SF3B1^K700E xenograft tumors; experiment: Splicing modulation and compound concentration in xenograft tumors after single IV dose; assay type: in vivo, CB17-SCID mice; settings: single IV dose 5 mg/kg
Protocol: (§1) In addition, the ability of E7107 to modulate splicing was tested in mice bearing human tumor xenografts. Nalm-6 isogenic xenograft mice were generated by subcutaneously implanting 10×10^6 Nalm-6 isogenic cells into the flank of CB17-SCID mice, and tumors from these mice were collected at different timepoints after a single intravenous (IV) dose of E7107 (5 mg/kg) and analyzed to determine compound concentrations and splicing regulation. RNA was isolated from the tumors using RiboPure™ RNA purification kit (Ambion®) and used for NanoString® assay or qPCR. The RNA was retrotranscribed according to the instructions of the SuperScript® VILO™ cDNA synthesis kit (Invitrogen™) and 0.04 μl of cDNA was used for qPCR. qPCR for pre-mRNA EIF4A1 and mature mRNA […] and pharmacokinetic evaluation were performed as described in Eskens, F. A. et al. “Phase I pharmacokinetic and pharmacodynamic study of the first-in-class spliceosome inhibitor E7107 in patients with advanced solid tumors.” Clin Cancer Res 19, 6296-6304, doi:10.1158/1078-0432.CCR-13-0485 (2013). The primers and probes used for ZDHHC16 were the following: FW 5′-[…] (SEQ ID NO: 1194), RW 5′ […] (SEQ ID NO: 1195) and probe 5′ FAM […] (SEQ ID NO: 1196). The primers and probes used for COASY were the following: FW 5′-CGGTGGTGCAAGTGGAA (SEQ ID NO: 1197), RW 5′-[…] (SEQ ID NO: 1198) and probe 5′-FAM-[…] (SEQ ID NO: 1199).

[2] = system: Nalm-6 SF3B1^K700K xenograft tumors; experiment: as above; assay type: in vivo, CB17-SCID mice; settings: single IV dose 5 mg/kg
Protocol: as §1

[3] = target: SF3B1^WT (Homo sapiens, UniProt O75533+Q7RTV0); experiment: In vitro splicing assay (IVS), Ad2 pre-mRNA substrate, nuclear extracts; assay type: biochemical; set-up: expressed in transfected cells; host or cells: nuclear extract of 293F cells transfected with pFLAG-CMV-2-SF3B1 (the same assay was also run with Nalm-6 nuclear extract); settings: nuclear extracts from Nalm-6 (SF3B1^WT) cells or 293F cells expressing Flag-tag SF3B1^WT
Protocol: E7107 is a small-molecule compound that inhibits splicing by targeting the U2 snRNP-associated complex SF3B (Kotake, Y. et al. “Splicing factor SF3b as a target of the antitumor natural product pladienolide.” Nat Chem Biol 3, 570-575, doi:10.1038/nchembio.2007.16 [2007]).
Nuclear extracts were prepared from 293F cells transfected with pFLAG-CMV-2-SF3B1 plasmids, or from isogenic Nalm-6 cells (SBH Sciences). The plasmids were generated by cloning the mxSF3B1 gene into the HindIII and KpnI sites of pFLAG-CMV2 (Sigma), and the mutations mxSF3B1^K700E, mxsF3B1^R1074H and mxSF3B1^K700E-R1074H were introduced using […]. Cell pellets were resuspended in hypotonic buffer (10 mM HEPES pH 7.9, 1.5 mM MgCl2, 10 mM KCl, 0.2 mM PMSF, and 0.5 mM DTT; for Nalm-6 cells, 40 mM KCl was used). The suspension was brought up to a total of five packed cell volumes (PCV). After centrifugation, the supernatant was discarded, and the cells were brought up to 3 PCV with hypotonic buffer, and incubated on ice for 10 minutes. Cells were lysed using a dounce homogenizer and then centrifuged. […] Protein concentration was determined using NanoDrop 8000 UV-Vis spectrophotometer (Thermo Scientific). […]

CC[C@H](O)[C@@H](C)[C@H]1O[C@@H]1C[C@@](C)(O)/C=C/C=C(\C)[C@H]1OC(=O)C[C@H](O)CC[C@@](C)(O)[C@@H](OC(=O)N2CCN(C3CCCCCC3)CC2)/C=C/[C@@H]1C [Compound E7107]
abnormal splicing of COASY and ZDHHC16 in tumor, qPCR [1]: downregulated abnormal splicing | canonical splicing in tumor (EIF4A1 pre-mRNA, SLC25A19 mature mRNA), qPCR [1]: modulated canonical splicing | canonical and aberrant splice mRNA isoforms in tumor, NanoString ([1]; timepoints after dose): downregulated by E7107 as early as one hour following administration | canonical splicing in tumor (EIF4A1 pre-mRNA, SLC25A19 mature mRNA), qPCR [2]: modulated canonical splicing | canonical and aberrant splice mRNA isoforms in tumor, NanoString ([2]; timepoints after dose): downregulated by E7107 as early as one hour following administration | inhibition of splicing of Ad2 pre-mRNA in nuclear extracts [3]: able to inhibit splicing
